In patent publication US20160081973A1, “ACTIVATOR OF MITOCHONDRIA” (FLORA CO., LTD., priority 2013, published 2016):

Assays:
Type in all cases: cell-based, human
[1] = tested on: HL60 cells; assay: Cell differentiation induction test, NBT reduction staining (differentiation into neutrophils); conditions: for differentiation ratio (ratio of NBT-stained cells): after 10 days of culture
Protocol: (§1) To each well of a 6-well plate, 1 mL of HL60 cells were plated at a concentration of 5×10^4 cells/mL, and a test substance at five serial concentrations (a 10-fold dilution series ranging from 10%) was added to the well at the same time as the plating. The cells in the plate were cultured for 5 days or 10 days under 5% […] at 37° C. The cell suspension in each well was recovered by centrifugation, and the number of cells, the NBT reducing capacity, and the esterase activity of the recovered cells were measured. In addition, changes in the karyotype of each cell was observed by Carrazzi's hematoxylin staining. The ratio of stained cells in each sample was measured to evaluate the differentiation induction capacity. The test was carried out in 5 replicates (n=5). A sample without addition of the test substance, and 0.1% ethyl alcohol (solvent control for the positive control) were used as negative controls, and retinoic acid (dissolved in ethyl alcohol; final concentration, 1 μM) and active vitamin D3 (dissolved in ethyl alcohol; final concentration, 10 nM) were used as positive controls. Details of each staining method are described below.
The concentration of the recovered cells was adjusted to 1×10^6 cells/mL with RPMI 1640 medium (SIGMA, R8758, serum-free), and an equal volume of NBT solution (PBS supplemented with 0.2% NBT and 20% FBS, which was used after filtration) was added thereto. TPA was added to the resulting mixture to a final concentration of 6 μM, and the mixture was then stirred. Thereafter, the mixture was left to stand at 37° C. for 30 minutes, and centrifuged at 1000 rpm for 5 minutes, followed by discarding the supernatant. Subsequently, the cells were resuspended in PBS, and applied onto a slide glass, followed by counting cells stained blue under the microscope.

[2] = tested on: HL60 cells; assay: Cytotoxicity test (mitochondrial activity level, counting of viable cells with WST-8); conditions: 3 days of culture, FIG. 1
Protocol: HL60 cells were cultured using a test medium (RPMI 1640 medium, 10% FBS, antibiotic-free) to the logarithmic growth phase in a CO: incubator (5% Cq, 37° C.). 2) Cytotoxicity Test (Evaluation of the Toxicity Based on the Viability, that is, the Survival Rate or the Death Rate, of Cells) To each well of a 96-well plate, 0.1 mL of HL6O cells were plated at a concentration of 5×10^4 cells/mL, and a test substance (7 serial dilutions: a 10-fold dilution series ranging from 10%; the test substance was preliminarily sterilized by filtration) was added to the well at the same time. After 3 days of the culture, a viable cell assay reagent SF (final concentration, 10%) was added to the cell suspension culture liquid, and viable cells were counted. The test was carried out in 3 replicates (n=3). The viability of the cells was evaluated using a viable cell counting reagent SF (WST-8) based on measurement of the absorbance.

[3] = tested on: HL60 cells; assay: DNA methylation level in HL60 cells; conditions: 10 days of culture, FIG. 7
[4] = tested on: HL60 cells; assay: Cell differentiation induction test, esterase staining (differentiation into monocytes); conditions: final concentration 1 μM
Protocol: as §1
Esterase staining was carried out as follows using an esterase staining kit (manufactured by Muto Pure Chemicals Co., Ltd.). The concentration of the recovered cells was adjusted to 1×10^6 cells/mL with PBS. […]

[5] = tested on: HL60 cells; assay: Counting of viable cells by trypan blue staining; conditions: positive control; solvent control 1.0×10^−5% DMSO; 5 days of culture; FIG. 8
Protocol: In each of T25 flasks, 5 mL of HL60 cells were seeded at 1×10^7 cells/flask. At the same time as the seeding, test substances (ethyl alcohol, retinoic acid, dimethyl sulfoxide, rotenone, SDW, and Examples 3 and 4) were fed to the flasks.
The addition of Example 3 to the medium was carried out after its sterilization by filtration. In Example 4, 10 mL of the test substance was warmed at 60° C. to evaporate the whole solvent, and 10 mL of sterile water was newly added thereto to dissolve the resultant. The resulting solution was sterilized by filtration, and then added to the medium. The retinoic acid to be added was provided as a concentrated solution containing retinoic acid at a concentration of 100 mM in ethyl alcohol, and the rotenone to be added was provided as a concentrated solution containing rotenone at a concentration of 100 mM in DMSO. […]
To 50 μL of a cell suspension culture liquid, 50 μL of a trypan blue solution was added, and the reaction was allowed to proceed for several minutes. Under the microscope, unstained cells and stained cells were counted using a hemocytometer. The number of dead cells (stained cells) per total number of cells was determined to calculate the number of live cells (cells/mL) and the dead cell ratio (%).

C=C1/C(=C\C=C2/CCC[C@]3(C)[C@@H]([C@H](C)CCCC(C)(C)O)CC[C@@H]23)C[C@@H](O)C[C@@H]1O [active vitamin D3, reference compound]
differentiation ratio (ratio of NBT-stained cells) ([1]; final concentration 10 nM, decreased by half): 4%

O=c1c(O)c(-c2ccc(O)cc2)oc2cc(O)cc(O)c12 [kaempferol]
differentiation ratio (ratio of NBT-stained cells) ([1]; 300 μg): 3%
differentiation ratios (NBT-stained cells) on Day 10 of the culture, change ([1]; Day 10 of the culture, FIG. 4): decreased
differentiation ratio (NBT-stained cells), trend ([1]; after 5 days of culture, FIG. 3): concentration-dependent improvement
mitochondrial activity (absorbance, viable cell count) ([2]; concentration 0.1% (30 ng/mL=0.03 μg/mL) to 10% (300 μg/mL)): increased
mitochondrial activity (absorbance, viable cell count) ([2]; concentration 3.2×10^−4% to 0.032%): suppressed
DNA methylation level in the HL60 cells ([3]; concentration 0.001%): increased
DNA methylation level in the HL60 cells ([3]; concentration 10% (300 μg/mL)): decreased

CC1=C(/C=C/C(C)=C/C=C/C(C)=C/C(=O)O)C(C)(C)CCC1 [retinoic acid]
differentiation into monocytes (ratio of esterase-stained cells) ([4]; Day 5 of the culture): 2%
differentiation into monocytes (ratio of esterase-stained cells) ([4]; Day 10 of the culture): 14%
differentiation ratio (ratio of NBT-stained cells) ([1]; final concentration 1 μM): 68%

C=C(C)[C@H]1Cc2c(ccc3c2O[C@@H]2COc4cc(OC)c(OC)cc4[C@@H]2C3=O)O1 [rotenone]
viable cell count by trypan blue staining versus solvent control [5]: decreased to about half
